Measured values published in paper PMC4207412, “Secondary Structural Preferences of Some Antibacterial Cyclooctapeptides in the Presence of Calcium(II)” (International Journal of Medicinal Chemistry, 2012).
Where two headings read alike, the source gives them in different places. Square brackets hold non-standard residues; d marks the D form. Peptide text beside a SMILES is read from it.

Tests used:
[1] = tested on: Escherichia coli ATCC 25922; type: cell-based
Experimental: (§1) Microbiological studies were performed on Escherichia coli ATCC 25922 and Staphylococcus aureus ATCC 10566 (American Type Culture Collection (ATCC), Rockville, MD, USA) using carefully standardized conditions. A suspension of the bacteria (in exponential phase of growth) was prepared and then diluted to yield a final concentration of approximately 1 × 10^5 colony forming units (cfu) per milliliter. Stock peptides were dissolved in 9% sucrose solutions containing 5% dimethyl sulfoxide. The 96-well microtiter tray containing the bacterial cultures and peptides was incubated for 18 hrs at 35°C. […] All tests were conducted in triplicate and the reported MIC values were derived from at least three independent experiments.
(§2) COP 4–9 were then designed to include a glutamyl residue to reduce the overall cationic charges on these amphipathic cyclopeptides. […] A lysine residue in COP 4 was sequentially substituted with histidine in COP 5, cysteine in COP 6, and leucine in COP 7. […] As the net positive charges of the cyclopeptide decreased, antimicrobial activity decreased by fourfold (see COP 6). […] The decreasing antimicrobial activities of these cyclopeptides could be attributed to their diminishing cationic character and an inadequate balance of amphipathic residues in their sequences. These structurally similar cyclopeptides (COP 1–9) were subsequently evaluated for calcium(II) binding affinity by ITC and assessed for conformational changes upon calcium(II) binding by circular dichroism (CD).

[2] = tested on: Staphylococcus aureus ATCC 10566; type: cell-based
Experimental: as §1, §2

[3] = Isothermal titration calorimetry of Ca2+ binding in 10% acetonitrile in water; conditions: ITC, 30°C, no DPC, peptide 0.15 or 0.30 mM, Ca(ClO4)2 9 to 15 mM in syringe, one-site model, mean of three experiments ± standard error mean
Experimental: (§3) Microcalorimetric titrations of peptides with metal ions were conducted by isothermal titration microcalorimetry (ITC) using a Microcal VP-ITC Instrument (Northampton, MA, USA). Experiments were carried out at 30°C in 10% acetonitrile in water. The peptide concentration was 0.15 or 0.30 mM (1.34 mL sample cell), and the metal ion [Ca(ClO4)2] concentration was varied from 9 to 15 mM in the syringe. Automated titrations were conducted until saturation, up to a Ca^2+/peptide mole ratio of about 12 : 1. Heats of dilution and mixing for each experiment were measured by titrating calcium(II) solution into 10% acetonitrile solution. The effective heat of each peptide and calcium(II) interaction was corrected for dilution and mixing effects by subtracting the enthalpy change derived from the titration of calcium(II) solution into the 10% acetonitrile solution without the peptide. In a similar way, ITC experiments were carried out at 30°C in 10% aqueous acetonitrile containing 10 mM DPC. These heats of bimolecular interactions were obtained by integrating the peak following each injection of calcium(II). The binding isotherms were derived from the raw ITC data following correction for dilution and mixing effects. These isotherms were fitted using the one-site model by a nonlinear least square analysis with Microcal Origin 7.0 software (Microcal Software, Inc., Northampton, MA, USA) to determine the molar enthalpy change for binding, ΔH, and the corresponding binding constant, K b. From these values, the thermodynamic characterization of the interaction at 30°C was determined from the fundamental equations of thermodynamics, ΔG = −RT ln K b and ΔS = (ΔH − ΔG)/T.

[4] = Isothermal titration calorimetry of Ca2+ binding in micellar DPC (10 mM); conditions: ITC, 30°C, 10% aqueous acetonitrile containing 10 mM micellar DPC; one-site model; mean of three experiments ± standard error mean
Experimental: as §3
In order to mimic the hydrophobic environment of the bacterial membrane that antimicrobial peptides commonly target, the interactions of these cyclopeptides with calcium(II) were also conducted in the presence of micellar dodecylphosphocholine (DPC). […] However, their association is compensated by an increase in entropy (ΔS values range from ca. 42.7 to 66.5 JK^−1 mol^−1). This entropy/enthalpy compensation could be attributed to a greater degree of dehydration of the hydration spheres around the cyclopeptide molecules and calcium ions following complex formation in the hydrophobic micellar DPC environment. However, there is no significant trend in the enthalpy or entropy changes following calcium(II) binding in the presence of micellar DPC.

[5] = Mueller-Hinton microbroth dilution, ca. 1 × 10^5 cfu/mL, 18 hrs at 35°C, visual turbidity, range tested 256 to 2 μg/mL, triplicate, at least three independent experiments

Row | SMILES | E. coli ATCC 25922 MIC ([1]; ATCC 25922, 18 h) [µg/mL] | S. aureus ATCC 10566 MIC ([2]; ATCC 10566, 18 h) [µg/mL] | Binding affinity for Ca^2+ K b [3] | Binding affinity for Ca^2+ K b [4] | E. coli ATCC 25922 MIC [1, 5] [µg/mL] | S. aureus ATCC 10566 MIC [2, 5] [µg/mL]
1 | CC(C)C[C@@H]1NC(=O)[C@@H](CC(C)C)NC(=O)[C@H](CCC(=O)O)NC(=O)[C@@H](CCCCN)NC(=O)[C@H](Cc2c[nH]cn2)NC(=O)[C@@H](CCCCN)NC(=O)[C@H](Cc2c[nH]cn2)NC(=O)[C@@H](CC(C)C)NC1=O [COP 8] (cyclo(E[dL]L[dL]H[dK]H[dK])) | >256 | >256 | (4.9 ± 0.3) × 10^3 M^−1 | (4.4 ± 0.02) × 10^3 M^−1 |  | 
2 | CC(C)C[C@@H]1NC(=O)[C@@H](CC(C)C)NC(=O)[C@H](CCC(=O)O)NC(=O)[C@@H](CCCCN)NC(=O)[C@H](CCCCN)NC(=O)[C@@H](CCCCN)NC(=O)[C@H](Cc2c[nH]cn2)NC(=O)[C@@H](CC(C)C)NC1=O [COP 5] (cyclo(E[dL]L[dL]H[dK]K[dK])) | 32 | 128 | (5.3 ± 1.4) × 10^3 M^−1 | (5.4 ± 0.6) × 10^3 M^−1 |  | 
3 | CC(C)C[C@@H]1NC(=O)[C@@H](CC(C)C)NC(=O)[C@H](CCC(=O)O)NC(=O)[C@@H](CCCCN)NC(=O)[C@H](CCCCN)NC(=O)[C@@H](CCCCN)NC(=O)[C@H](CCCCN)NC(=O)[C@@H](CC(C)C)NC1=O [COP 4] (cyclo(E[dL]L[dL]K[dK]K[dK])) |  |  | (3.1 ± 0.7) × 10^3 M^−1 | (4.7 ± 1.1) × 10^3 M^−1 | 16 | 32
4 | CC(C)C[C@@H]1NC(=O)[C@@H](CC(C)C)NC(=O)[C@H](CC(C)C)NC(=O)[C@@H](CCCCN)NC(=O)[C@H](CCCCN)NC(=O)[C@@H](CCCCN)NC(=O)[C@H](CCCCN)NC(=O)[C@@H](Cc2c[nH]c3ccccc23)NC1=O [COP 2] (cyclo(K[dK]K[dK]L[dL]L[dW])) |  |  | (4.8 ± 1.3) × 10^3 M^−1 |  | 16 | 8
5 | CC(C)C[C@@H]1NC(=O)[C@@H](CC(C)C)NC(=O)[C@H](CCC(=O)O)NC(=O)[C@@H](CCCCN)NC(=O)[C@H](CCCCN)NC(=O)[C@@H](CCCCN)NC(=O)[C@H](CS)NC(=O)[C@@H](CC(C)C)NC1=O [COP 6] (cyclo(C[dK]K[dK]E[dL]L[dL])) | 128 | 128 | (6.4 ± 2.8) × 10^3 M^−1 | (4.9 ± 0.7) × 10^3 M^−1 |  | 
6 | CC(C)C[C@@H]1NC(=O)[C@@H](CC(C)C)NC(=O)[C@H](CCC(=O)O)NC(=O)[C@@H](CCCCN)NC(=O)[C@H](CCCCN)NC(=O)[C@@H](CCCCN)NC(=O)[C@H](CCC(=O)O)NC(=O)[C@@H](CC(C)C)NC1=O [COP 9] (cyclo(E[dK]K[dK]E[dL]L[dL])) | >256 | >256 | (5.4 ± 1.2) × 10^3 M^−1 | (4.1 ± 0.03) × 10^3 M^−1 |  | 
7 | CC(C)C[C@@H]1NC(=O)[C@@H](CC(C)C)NC(=O)[C@H](CC(C)C)NC(=O)[C@@H](CC(C)C)NC(=O)[C@H](CCC(=O)O)NC(=O)[C@@H](CCCCN)NC(=O)[C@H](CCCCN)NC(=O)[C@@H](CCCCN)NC1=O [COP 7] (cyclo(E[dL]L[dL]L[dK]K[dK])) | >256 | >256 | (8.0 ± 1.2) × 10^3 M^−1 | (4.7 ± 1.0) × 10^3 M^−1 |  | 
8 | CC(C)C[C@@H]1NC(=O)[C@@H](CC(C)C)NC(=O)[C@H](CCCCN)NC(=O)[C@@H](CCCCN)NC(=O)[C@H](CCCCN)NC(=O)[C@@H](CCCCN)NC(=O)[C@H](CS)NC(=O)[C@@H](CC(C)C)NC1=O [COP 3] (cyclo(C[dK]K[dK]K[dL]L[dL])) | 16 | 16 | (7.9 ± 2.8) × 10^3 M^−1 | (3.3 ± 0.3) × 10^3 M^−1 |  | 
9 | CC(C)C[C@@H]1NC(=O)[C@@H](CCCCN)NC(=O)[C@H](CCCCN)NC(=O)[C@@H](CCCCN)NC(=O)[C@H](CCCCN)NC(=O)[C@@H](CC(C)C)NC(=O)[C@H](CC(C)C)NC(=O)[C@@H](CC(C)C)NC1=O [COP 1] (cyclo(K[dK]K[dK]L[dL]L[dL])) |  |  | (3.4 ± 0.6) × 10^3 M^−1 |  | 16 | 8
